In the NIST ThermoML archive (doi:10.1016/j.fluid.2014.07.011):
Numbers after ± are expanded uncertainties.

experiment: Boiling temperature at pressure P; conditions: 101 kPa; Liquid; Ebulliometric method (Recirculating still)

Compound | Boiling temperature at pressure P [°C]
O=Cc1ccco1 [2-furaldehyde] | 162 ± 1.6
CC(=O)CC(C)C [4-methylpentan-2-one] | 117.4 ± 1.6
OC1CCCC1 [cyclopentanol] | 139.4 ± 1.6
CCOC(C)=O [ethyl acetate] | 77.1 ± 1.6
